Laboratory results taken from the supplement of paper PMC11061612.

Tests used:
Assay in all cases: combination Emax (second highest fraction inhibited in the dose matrix, 72 h); higher = more inhibition; extreme values may be limits of the assay
[1] = system: NB14 (Neuroblastoma)
Procedure, shortened: (§1)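 Cell lines grown in DMEM/F12 or RPMI with 10% FBS were plated in 1536-well plates and held 24 hours at 37°C, 5% CO2 before 72 hours of exposure to two-drug dose matrices, with DMSO typically at 0.2%. CellTiter-Glo 2.0 luminescence gave viability, which was converted to inhibition. Vehicle wells were set to 0 and blank wells to 1. Combination Emax is the second-highest inhibition in the matrix, and Bliss excess is the observed combination effect minus the expected EA + EB − EA·EB, where EA and EB are the single-agent effects.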

[2] = system: HARA (Squamous Cell Lung Carcinoma)
Procedure, shortened: as §1

[3] = system: PCI-30 (Head and Neck Carcinoma)
Procedure, shortened: as §1

[4] = system: NCI-H28 (Mesothelioma)
Procedure, shortened: as §1

[5] = system: OC-314 (Ovarian Carcinoma)
Procedure, shortened: as §1

[6] = system: EN (Endometrial Carcinoma)
Procedure, shortened: as §1

[7] = system: SU-DHL-6 (B-Cell Non-Hodgkin's Lymphoma)
Procedure, shortened: as §1

[8] = system: HO-1-u-1 (Oral Cavity Carcinoma)
Procedure, shortened: as §1

[9] = system: SK-OV-3 (Ovarian Carcinoma)
Procedure, shortened: as §1

[10] = system: NCI-H2461 (Mesothelioma)
Procedure, shortened: as §1

[11] = system: SW1271 (Small Cell Lung Carcinoma)
Procedure, shortened: as §1

[12] = system: 8305C (Thyroid Gland Carcinoma)
Procedure, shortened: as §1

[13] = system: Hs-633T (Other Solid Carcinomas)
Procedure, shortened: as §1

[14] = system: NCI-H2795 (Mesothelioma)
Procedure, shortened: as §1

[15] = system: SUP-T1 (T-Lymphoblastic Leukemia)
Procedure, shortened: as §1

[16] = system: NCI-H69 (Small Cell Lung Carcinoma)
Procedure, shortened: as §1

[17] = system: CAL-54 (Kidney Carcinoma)
Procedure, shortened: as §1

[18] = system: RT-112 (Bladder Carcinoma)
Procedure, shortened: as §1

[19] = system: K5 (Thyroid Gland Carcinoma)
Procedure, shortened: as §1

[20] = system: RKO (Colorectal Carcinoma)
Procedure, shortened: as §1

Compound | combination Emax [1] | combination Emax [2] | combination Emax [3] | combination Emax [4] | combination Emax [5] | combination Emax [6] | combination Emax [7] | combination Emax [8] | combination Emax [9] | combination Emax [10] | combination Emax [11] | combination Emax [12] | combination Emax [13] | combination Emax [14] | combination Emax [15] | combination Emax [16] | combination Emax [17] | combination Emax [18] | combination Emax [19] | combination Emax [20]
O=C(c1cc(Cc2n[nH]c(=O)c3ccccc23)ccc1F)N1CCN(C(=O)C2CC2)CC1 [Olaparib] + Cc1c2c(nn1C)CSCc1cc(n(C)n1)CSc1cc(c3ccccc3c1)OCCCc1c(C(=O)O)n(C)c3c-2c(Cl)ccc13 [AZD5991] (first compound max 10 µM, 7x7, partner max 1 µM) | 0.595 | 0.277 | 0.103 | 0.118 | 0.191 | 0.476 | 1 | 0.239 | 0.174 | 0.127 | 0.131 | 0.311 | 0.184 | 0.748 | 0.477 | 0.239 | 0.208 | 0.672 | 0.0887 | 0.137
CN(CCO)CC[C@H](CSc1ccccc1)Nc1ccc(S(=O)(=O)NC(=O)c2ccc(N3CCC([C@@H](O)c4ccccc4-c4ccc(Cl)cc4)CC3)cc2)cc1S(=O)(=O)C(F)(F)F [AZD4320] + C[C@@H](Nc1cc(F)cc(F)c1)c1cc(C(=O)N(C)C)cc2c(=O)cc(N3CCOCC3)oc12 [AZD8186] (first compound max 1 µM, 7x7, partner max 3 µM) | 1 | 0.361 | 0.321 | 0.297 | 0.433 | 0.354 | 1 | 0.369 | 0.407 | 0.337 | 0.649 | 0.669 | 0.503 | 0.779 | 0.887 | 0.885 | 0.593 | 0.435 | 0.619 | 0.32
O=C(c1cc(Cc2n[nH]c(=O)c3ccccc23)ccc1F)N1CCN(C(=O)C2CC2)CC1 [Olaparib] + CN(CC[C@H](CSC1=CC=CC=C1)NC2=C(C=C(C=C2)S(=O)(=O)NC(=O)C3=CC=C(C=C3)N4CCC(CC4)[C@H](C5=CC=CC=C5C6=CC=C(C=C6)Cl)O)S(=O)(=O)C(F)(F)F)CCO [AZD4320] (first compound max 10 µM, 7x7, partner max 1 µM) | 0.882 | 0.162 | 0.188 | 0.168 | 0.262 | 0.297 | 0.919 | 0.29 | 0.219 | 0.17 | 0.21 | 0.385 | 0.2 | 0.451 | 0.602 | 0.954 | 0.236 | 0.153 | 0.199 | 0.11
C[C@@H]1COCCN1c1cc(C2([S@](C)(=N)=O)CC2)nc(-c2ccnc3[nH]ccc23)n1 [AZD6738] + Nc1ccn([C@@H]2O[C@H](CO)[C@@H](O)C2(F)F)c(=O)n1 [Gemcitabine] (first compound max 10 µM, 7x7, partner max 0.3 µM) | 1 | 0.927 | 0.795 | 0.695 | 0.993 | 0.66 | 0.945 | 0.926 | 0.625 | 0.714 | 0.7 | 0.721 | 0.937 | 0.874 | 0.852 | 0.851 | 0.819 | 0.936 | 0.778 | 0.954
CN(CCO)CC[C@H](CSc1ccccc1)Nc1ccc(S(=O)(=O)NC(=O)c2ccc(N3CCC([C@@H](O)c4ccccc4-c4ccc(Cl)cc4)CC3)cc2)cc1S(=O)(=O)C(F)(F)F [AZD4320] + Nc1ccn([C@@H]2O[C@H](CO)[C@@H](O)C2(F)F)c(=O)n1 [Gemcitabine] (first compound max 1 µM, 7x7, partner max 0.3 µM) | 0.993 | 0.8 | 0.743 | 0.797 | 0.989 | 0.337 | 0.998 | 0.563 | 0.308 | 0.641 | 0.872 | 0.625 | 0.992 | 0.872 | 0.846 | 0.946 | 0.838 | 0.507 | 0.688 | 0.928
N#Cc1cnc(Nc2cc(NC[C@H]3CNCCO3)c(C(F)(F)F)cn2)cn1 [SRA737] + Nc1ccn([C@@H]2O[C@H](CO)[C@@H](O)C2(F)F)c(=O)n1 [Gemcitabine] (first compound max 10 µM, 7x7, partner max 0.3 µM) | 1 | 0.902 | 0.736 | 0.761 | 0.979 | 0.634 | – | 0.826 | 0.543 | 0.683 | 0.647 | 0.679 | 0.916 | 0.804 | 0.806 | 0.778 | 0.792 | 0.899 | 0.689 | 0.923
